Experimental data published in PubChem BioAssay AID1963958 (Molecular Pharmacology Branch, DTP, NCI, 2024).
pIC50: −log10 of the molar value.

Tested on: MDA-MB-231 multicell spheroids, viability
Assay: Anticancer human tumor MDA-MB-231 cell line growth inhibition [PI3K];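 note: spheroids exposed to agents for seven days before reading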;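 for viability, T/C: percent of vehicle control luminescence with DMSO treated spheroids as 100%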
Details: for pIC50: curve of first compound; for viability, T/C: stronger effect = lower value
Outline: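 We assembled tumor spheroids that included a stromal compartment of HUVEC and MSCs, then exposed them to targeted agents alone and together with PI3K pathway inhibitors. Concentration series descended by half-log from clinically achievable Cmax levels. Viability served as the endpoint.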

[1] = second compound 0.00316 µM, first compound 0.0316 µM
[2] = second compound 0.00316 µM, first compound 0.1 µM
[3] = second compound 0.00316 µM, first compound 0.316 µM
[4] = second compound 0.00316 µM, first compound 1 µM
[5] = second compound 0.00316 µM, first compound 3.16 µM
[6] = second compound 0.00316 µM, first compound 10 µM
[7] = second compound 0.01 µM, first compound 0.0316 µM
[8] = second compound 0.01 µM, first compound 0.1 µM
[9] = second compound 0.01 µM, first compound 0.316 µM
[10] = second compound 0.01 µM, first compound 1 µM
[11] = second compound 0.01 µM, first compound 3.16 µM
[12] = second compound 0.01 µM, first compound 10 µM
[13] = second compound 0.0316 µM, first compound 0.0316 µM
[14] = second compound 0.0316 µM, first compound 0.1 µM
[15] = second compound 0.0316 µM, first compound 0.316 µM
[16] = second compound 0.0316 µM, first compound 1 µM
[17] = second compound 0.0316 µM, first compound 3.16 µM
[18] = second compound 0.0316 µM, first compound 10 µM
[19] = second compound 0.1 µM, first compound 0.0316 µM
[20] = second compound 0.1 µM, first compound 0.1 µM
[21] = second compound 0.1 µM, first compound 0.316 µM
[22] = second compound 0.1 µM, first compound 1 µM
[23] = second compound 0.1 µM, first compound 3.16 µM
[24] = second compound 0.1 µM, first compound 10 µM
[25] = second compound 0.316 µM, first compound 0.0316 µM
[26] = second compound 0.316 µM, first compound 0.1 µM
[27] = second compound 0.316 µM, first compound 0.316 µM
[28] = second compound 0.316 µM, first compound 1 µM
[29] = second compound 0.316 µM, first compound 3.16 µM
[30] = second compound 0.316 µM, first compound 10 µM
[31] = second compound 1 µM, first compound 0.0316 µM
[32] = second compound 1 µM, first compound 0.1 µM
[33] = second compound 1 µM, first compound 0.316 µM
[34] = second compound 1 µM, first compound 1 µM
[35] = second compound 1 µM, first compound 3.16 µM
[36] = second compound 1 µM, first compound 10 µM

C#Cc1c(F)ccc2cc(O)cc(-c3ncc4c(N5CC6CCC(C5)N6)nc(OCC56CCCN5CC(F)C6)nc4c3F)c12 (stereo not drawn) + COc1c(OCCCN2CCOCC2)ccc2c3n(c(=NC(=O)c4cnc(N)nc4)nc12)CCN3
pIC50 (second compound 0.00316 µM): < 5.00 | pIC50 (second compound 0.01 µM): 5.07 | pIC50 (second compound 0.0316 µM): 5.69 | pIC50 (second compound 0.1 µM): > 7.50 | pIC50 (second compound 0.316 µM): > 7.50 | pIC50 (second compound 1 µM): > 7.50 | viability, T/C [1]: 96% | viability, T/C [2]: 101% | viability, T/C [3]: 81.7% | viability, T/C [4]: 88.4% | viability, T/C [5]: 78.4% | viability, T/C [6]: 52.7% | viability, T/C [7]: 77.9% | viability, T/C [8]: 77.8% | viability, T/C [9]: 72.9% | viability, T/C [10]: 74.2% | viability, T/C [11]: 66.3% | viability, T/C [12]: 47.5% | viability, T/C [13]: 60.6% | viability, T/C [14]: 56.3% | viability, T/C [15]: 60.5% | viability, T/C [16]: 54.6% | viability, T/C [17]: 45.7% | viability, T/C [18]: 35% | viability, T/C [19]: 47% | viability, T/C [20]: 46.7% | viability, T/C [21]: 46.9% | viability, T/C [22]: 40.8% | viability, T/C [23]: 33% | viability, T/C [24]: 21.5% | viability, T/C [25]: 32.2% | viability, T/C [26]: 31.5% | viability, T/C [27]: 26.4% | viability, T/C [28]: 23.4% | viability, T/C [29]: 18.1% | viability, T/C [30]: 13.3% | viability, T/C [31]: 24.8% | viability, T/C [32]: 23.1% | viability, T/C [33]: 20.2% | viability, T/C [34]: 16.8% | viability, T/C [35]: 15.1% | viability, T/C [36]: 10.4%

CC(Cn1ccc(-c2ccc(C#N)c(Cl)c2)n1)NC(=O)c1cc(C(C)O)[nH]n1 (stereo not drawn) + COc1c(OCCCN2CCOCC2)ccc2c3n(c(=NC(=O)c4cnc(N)nc4)nc12)CCN3
pIC50 (second compound 0.00316 µM): < 5.00 | pIC50 (second compound 0.01 µM): < 5.00 | pIC50 (second compound 0.0316 µM): < 5.00 | pIC50 (second compound 0.1 µM): > 7.50 | pIC50 (second compound 0.316 µM): > 7.50 | pIC50 (second compound 1 µM): > 7.50 | viability, T/C [1]: 90% | viability, T/C [2]: 93.5% | viability, T/C [3]: 106% | viability, T/C [4]: 96.9% | viability, T/C [5]: 91.9% | viability, T/C [6]: 84.2% | viability, T/C [7]: 76.8% | viability, T/C [8]: 83.2% | viability, T/C [9]: 80.1% | viability, T/C [10]: 82.6% | viability, T/C [11]: 77.6% | viability, T/C [12]: 67.9% | viability, T/C [13]: 60.8% | viability, T/C [14]: 63.9% | viability, T/C [15]: 60.8% | viability, T/C [16]: 62.5% | viability, T/C [17]: 55% | viability, T/C [18]: 46.2% | viability, T/C [19]: 44.4% | viability, T/C [20]: 47.1% | viability, T/C [21]: 44.1% | viability, T/C [22]: 47.3% | viability, T/C [23]: 45.1% | viability, T/C [24]: 37.6% | viability, T/C [25]: 31.6% | viability, T/C [26]: 30.3% | viability, T/C [27]: 31.4% | viability, T/C [28]: 32% | viability, T/C [29]: 29.6% | viability, T/C [30]: 26.1% | viability, T/C [31]: 24.4% | viability, T/C [32]: 24.8% | viability, T/C [33]: 24.6% | viability, T/C [34]: 25.3% | viability, T/C [35]: 24.8% | viability, T/C [36]: 22.4%

CC1(C)CCC(Nc2ncc(C(F)(F)F)c(-c3c[nH]c4c(P(C)(C)=O)c(C#N)ccc34)n2)CN1 (stereo not drawn) + COc1c(OCCCN2CCOCC2)ccc2c3n(c(=NC(=O)c4cnc(N)nc4)nc12)CCN3
pIC50 (second compound 0.00316 µM): 5.48 | pIC50 (second compound 0.01 µM): > 7.50 | pIC50 (second compound 0.0316 µM): > 7.50 | pIC50 (second compound 0.1 µM): > 7.50 | pIC50 (second compound 0.316 µM): > 7.50 | pIC50 (second compound 1 µM): > 7.50 | viability, T/C [1]: 52.3% | viability, T/C [2]: 45% | viability, T/C [3]: 49.5% | viability, T/C [4]: 55% | viability, T/C [5]: 55.7% | viability, T/C [6]: 4.47% | viability, T/C [7]: 48.4% | viability, T/C [8]: 43.3% | viability, T/C [9]: 45.8% | viability, T/C [10]: 50.7% | viability, T/C [11]: 45.2% | viability, T/C [12]: 3.69% | viability, T/C [13]: 42.3% | viability, T/C [14]: 43.2% | viability, T/C [15]: 38.2% | viability, T/C [16]: 41.5% | viability, T/C [17]: 38.8% | viability, T/C [18]: 3.49% | viability, T/C [19]: 35.4% | viability, T/C [20]: 31.1% | viability, T/C [21]: 31.5% | viability, T/C [22]: 30.6% | viability, T/C [23]: 30.7% | viability, T/C [24]: 3.64% | viability, T/C [25]: 24.9% | viability, T/C [26]: 23.2% | viability, T/C [27]: 23.9% | viability, T/C [28]: 24.6% | viability, T/C [29]: 24.8% | viability, T/C [30]: 2.87% | viability, T/C [31]: 21.9% | viability, T/C [32]: 20.9% | viability, T/C [33]: 20.7% | viability, T/C [34]: 22% | viability, T/C [35]: 21.9% | viability, T/C [36]: 2.6%

Cn1cnc2c(F)c(Nc3ccc(Br)cc3Cl)c(C(=O)NOCCO)cc21 + Cc1nc(NC(=O)N2CCCC2C(N)=O)sc1-c1ccnc(C(C)(C)C(F)(F)F)c1
pIC50 (second compound 0.0316 µM): 6.56 | pIC50 (second compound 0.1 µM): 7.21 | pIC50 (second compound 0.316 µM): > 8.02 | pIC50 (second compound 1 µM): > 8.02 | pIC50 (second compound 3.16 µM): > 8.02 | pIC50 (second compound 10 µM): > 8.02 | viability, T/C (second compound 0.0316 µM, first compound 0.00949 µM): 63.2% | viability, T/C (second compound 0.0316 µM, first compound 0.03 µM): 55.5% | viability, T/C (second compound 0.0316 µM, first compound 0.0949 µM): 56.7% | viability, T/C (second compound 0.0316 µM, first compound 0.3 µM): 47.1% | viability, T/C (second compound 0.0316 µM, first compound 0.949 µM): 45.2% | viability, T/C (second compound 0.0316 µM, first compound 3 µM): 29.5% | viability, T/C (second compound 0.1 µM, first compound 0.00949 µM): 58.1% | viability, T/C (second compound 0.1 µM, first compound 0.03 µM): 51.1% | viability, T/C (second compound 0.1 µM, first compound 0.0949 µM): 47.8% | viability, T/C (second compound 0.1 µM, first compound 0.3 µM): 41.4% | viability, T/C (second compound 0.1 µM, first compound 0.949 µM): 40% | viability, T/C (second compound 0.1 µM, first compound 3 µM): 26.1% | viability, T/C (second compound 0.316 µM, first compound 0.00949 µM): 50.4% | viability, T/C (second compound 0.316 µM, first compound 0.03 µM): 43.2% | viability, T/C (second compound 0.316 µM, first compound 0.0949 µM): 48.1% | viability, T/C (second compound 0.316 µM, first compound 0.3 µM): 40.6% | viability, T/C (second compound 0.316 µM, first compound 0.949 µM): 34.3% | viability, T/C (second compound 0.316 µM, first compound 3 µM): 22.1% | viability, T/C (second compound 1 µM, first compound 0.00949 µM): 44.4% | viability, T/C (second compound 1 µM, first compound 0.03 µM): 37.8% | viability, T/C (second compound 1 µM, first compound 0.0949 µM): 38.7% | viability, T/C (second compound 1 µM, first compound 0.3 µM): 37.4% | viability, T/C (second compound 1 µM, first compound 0.949 µM): 33% | viability, T/C (second compound 1 µM, first compound 3 µM): 12.6% | viability, T/C (second compound 3.16 µM, first compound 0.00949 µM): 48.4% | viability, T/C (second compound 3.16 µM, first compound 0.03 µM): 37.1% | viability, T/C (second compound 3.16 µM, first compound 0.0949 µM): 36.2% | viability, T/C (second compound 3.16 µM, first compound 0.3 µM): 36.1% | viability, T/C (second compound 3.16 µM, first compound 0.949 µM): 30.2% | viability, T/C (second compound 3.16 µM, first compound 3 µM): 9.65% | viability, T/C (second compound 10 µM, first compound 0.00949 µM): 39.2% | viability, T/C (second compound 10 µM, first compound 0.03 µM): 32.7% | viability, T/C (second compound 10 µM, first compound 0.0949 µM): 31.6% | viability, T/C (second compound 10 µM, first compound 0.3 µM): 24.7% | viability, T/C (second compound 10 µM, first compound 0.949 µM): 17.9% | viability, T/C (second compound 10 µM, first compound 3 µM): 4.43%
